Data reported in ChEMBL document CHEMBL5518244, “Design, Synthesis, and Biological Evaluation of a Novel NIK Inhibitor with Anti-Inflammatory and Hepatoprotective Effects for Sepsis Treatment” (J Med Chem, 2024).
pIC50: −log10 of the molar value. Active and inactive are the calls of the source. The calls are words filed in the database; no cut-off is given here.

How the values were obtained:
[1] = molecular target: T1, Mitogen-activated protein kinase kinase kinase 14 (Homo sapiens, UniProt Q99558); test: Inhibition of NIK (unknown origin) incubated 30 to 60 mins by ADP-Glo Kinase
Target sequence in this assay (Q99558 whole entry): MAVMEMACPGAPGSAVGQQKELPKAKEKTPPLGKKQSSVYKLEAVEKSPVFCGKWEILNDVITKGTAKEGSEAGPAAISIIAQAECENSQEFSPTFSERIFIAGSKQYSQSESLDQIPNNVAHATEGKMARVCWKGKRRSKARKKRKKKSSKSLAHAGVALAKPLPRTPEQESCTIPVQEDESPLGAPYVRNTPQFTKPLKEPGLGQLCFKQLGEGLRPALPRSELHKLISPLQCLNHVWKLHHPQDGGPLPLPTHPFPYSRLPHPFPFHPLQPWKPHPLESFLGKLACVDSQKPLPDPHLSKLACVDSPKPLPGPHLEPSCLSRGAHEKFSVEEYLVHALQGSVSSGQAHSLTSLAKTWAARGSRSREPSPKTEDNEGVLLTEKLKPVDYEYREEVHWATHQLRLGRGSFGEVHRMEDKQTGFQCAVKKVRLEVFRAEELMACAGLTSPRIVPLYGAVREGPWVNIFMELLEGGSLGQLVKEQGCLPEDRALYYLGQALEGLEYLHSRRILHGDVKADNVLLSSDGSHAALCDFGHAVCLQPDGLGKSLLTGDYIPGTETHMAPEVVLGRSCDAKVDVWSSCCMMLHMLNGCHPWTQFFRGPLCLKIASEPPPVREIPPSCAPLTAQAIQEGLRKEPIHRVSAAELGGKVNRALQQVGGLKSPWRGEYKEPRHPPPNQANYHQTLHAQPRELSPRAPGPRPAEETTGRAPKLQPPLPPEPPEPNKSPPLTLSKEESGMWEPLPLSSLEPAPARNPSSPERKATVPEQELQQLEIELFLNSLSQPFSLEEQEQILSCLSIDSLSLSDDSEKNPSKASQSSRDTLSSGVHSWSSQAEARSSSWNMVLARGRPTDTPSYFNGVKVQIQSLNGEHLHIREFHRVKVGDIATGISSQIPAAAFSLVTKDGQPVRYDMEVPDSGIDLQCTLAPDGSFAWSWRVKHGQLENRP

[2] = molecular target: T1, Mitogen-activated protein kinase kinase kinase 14; test: Inhibition of NIK (unknown origin) expressed in COS-7 cells co-expressing NF-KappaB luciferase reporter assessed as suppression of luciferase reporter measured after 24 by beta-Gal activity assay; type: cell-based
Target sequence in this assay (Q99558 whole entry): as above

[3] = test system: Macrophage; test: Anti-inflammatory activity in mouse macrophages extracted from abdominal activity assessed as inhibition of LPS-induced nitric oxide production at 1 uM measured after 22 hrs by Griess reagent assay relative to control; type: functional, cell-based
[4] = molecular target: T1, Mitogen-activated protein kinase kinase kinase 14; test: Inhibition of NIK (unknown origin) expressed in COS-7 cells co-expressing NF-KappaB luciferase reporter assessed as suppression of luciferase reporter at 1 uM measured after 24 by beta-Gal activity assay; type: cell-based
Target sequence in this assay (Q99558 whole entry, looked up): as the sequence (Q99558 whole entry) above

[5] = molecular target: T1, Mitogen-activated protein kinase kinase kinase 14; test: Inhibition of NIK (unknown origin) expressed in COS-7 cells co-expressing NF-KappaB luciferase reporter assessed as suppression of luciferase reporter at 5 uM measured after 24 by beta-Gal activity assay; type: cell-based
Target sequence in this assay (Q99558 whole entry, looked up): as the sequence (Q99558 whole entry) above

SMILES	pIC50 [1]	also measured
COc1cc(Nc2nccc(N3CCCn4nc(C#CC(C)(O)c5nccs5)cc43)n2)nc(OC)c1 (stereo not given)	7.97	–
CC(O)(C#Cc1ccc2c(c1)N(c1nc(N)ncc1Cl)CC2)c1nccs1 (stereo not given)	8.57	pIC50 [2]: 6.04; pIC50 [3]: 4.23
CC(O)(C#Cc1cc2n(n1)CCCN2c1ncnc(Nc2ccc(Cl)cc2)n1)c1nccs1 (stereo not given)	8.33	–
CC(O)(C#Cc1cc2n(n1)CCCN2c1cc(Nc2ccc(F)cc2)ncn1)c1nccs1 (stereo not given)	7.23	–
COc1cccc(Nc2nccc(N3CCCn4nc(C#CC(C)(O)c5nccs5)cc43)n2)n1 (stereo not given)	8.35	–
CC(O)(C#Cc1cc2n(n1)CCCN2c1ccnc(Nc2cc(N3CCOCC3)ccn2)n1)c1nccs1 (stereo not given)	6.47	–
CC(O)(C#Cc1cc2n(n1)CCCN2c1ncnc2[nH]ccc12)c1nccs1 (stereo not given)	< 6.30	–
COCCNc1nccc(N2CCCn3nc(C#CC(C)(O)c4nccs4)cc32)n1 (stereo not given)	7.47	–
CC(O)(C#Cc1cc2n(n1)CCCN2c1ccnc(Nc2ccncn2)n1)c1nccs1 (stereo not given)	7.95	–
CC(O)(C#Cc1cc2n(n1)CCCN2c1nc(N)ncc1Cl)c1nccs1 (stereo not given)	7.15	–
CC(O)(C#Cc1cc2n(n1)CCCN2c1ccnc(Nc2cccc(N3CCOCC3)n2)n1)c1nccs1 (stereo not given)	8.01	inhibition [4]: Active; inhibition [5]: Active; pIC50 [2]: 5.61; pIC50 [3]: 4.76
CC(O)(C#Cc1cc2n(n1)CCCN2c1ccnc(Nc2ccccn2)n1)c1nccs1 (stereo not given)	8.23	–
COc1ccc(Nc2nccc(N3CCCn4nc(C#CC(C)(O)c5nccs5)cc43)n2)nc1 (stereo not given)	8.13	–
COc1cccnc1Nc1nccc(N2CCCn3nc(C#CC(C)(O)c4nccs4)cc32)n1 (stereo not given)	6.36	–
CC(O)(C#Cc1cc2n(n1)CCCN2c1ccnc(Nc2ccccc2)c1)c1nccs1 (stereo not given)	7.95	–
CC(O)(C#Cc1cc2n(n1)CCCN2c1ccnc(Nc2cccc(N3CCCCC3)n2)n1)c1nccs1 (stereo not given)	7.61	–
CC(O)(C#Cc1cc2n(n1)CCCN2c1ccnc(N)n1)c1nccs1 (stereo not given)	8.34	–
CC(O)(C#Cc1cc2n(n1)CCCN2c1ccnc(Nc2ccc3ccccc3n2)n1)c1nccs1 (stereo not given)	7.66	–
CC(O)(C#Cc1cc2n(n1)CCCN2c1cccc(Nc2ccccc2)n1)c1nccs1 (stereo not given)	< 6.30	–
COc1cc(Nc2nccc(N3CCCn4nc(C#C[C@](C)(O)c5nccs5)cc43)n2)cc(OC)c1	7.05	–
CC(C)Nc1nccc(N2CCCn3nc(C#CC(C)(O)c4nccs4)cc32)n1 (stereo not given)	7.84	–
COc1cc(Nc2nccc(N3CCCn4nc(C#CC(C)(O)c5nccs5)cc43)n2)cc(OC)c1 (stereo not given)	8.17	–
CC(C)n1cc(Nc2nccc(N3CCCn4nc(C#CC(C)(O)c5nccs5)cc43)n2)cn1 (stereo not given)	8.04	–
COCCN(C)c1cccc(Nc2nccc(N3CCCn4nc(C#CC(C)(O)c5nccs5)cc43)n2)n1 (stereo not given)	7.83	–
CNc1nccc(N2CCCn3nc(C#CC(C)(O)c4nccs4)cc32)n1 (stereo not given)	7.95	–
CC(O)(C#Cc1cc2n(n1)CCCN2c1nc(N)ncc1F)c1nccs1 (stereo not given)	< 6.30	–
CC(C)Oc1cccc(Nc2nccc(N3CCCn4nc(C#CC(C)(O)c5nccs5)cc43)n2)n1 (stereo not given)	7.78	–
CC(O)(C#Cc1cc2n(n1)CCCN2c1ccnc(Nc2cccc(C(F)(F)F)n2)n1)c1nccs1 (stereo not given)	7.78	–

The next lines start with results.

pIC50 [1]	SMILES	also measured
8.42	Cc1cc(C(C)(O)C#Cc2cc3n(n2)CCCN3c2ccnc(Nc3ccc4c(c3)OCO4)n2)no1 (stereo not given)	–
8.16	CC(O)(C#Cc1cc2n(n1)CCCN2c1ccnc(Nc2cc(Cl)ccn2)n1)c1nccs1 (stereo not given)	–
8.30	CC(O)(C#Cc1cc2n(n1)CCCN2c1ccnc(Nc2cccc(C#N)c2)n1)c1nccs1 (stereo not given)	inhibition [4]: Active; inhibition [5]: Active; pIC50 [2]: 5.45; pIC50 [3]: 4.19
8.21	CC(O)(C#Cc1cc2n(n1)CCCN2c1ccnc(Nc2ccc(F)cc2)n1)c1nccs1 (stereo not given)	–
7.89	CN(C)c1cccc(Nc2nccc(N3CCCn4nc(C#CC(C)(O)c5nccs5)cc43)n2)n1 (stereo not given)	–
8.32	CC(O)(C#Cc1cc2n(n1)CCCN2c1ccnc(Nc2ccccc2)n1)c1nccs1 (stereo not given)	inhibition [4]: Active; inhibition [5]: Active; pIC50 [2]: 5.66; pIC50 [3]: 4.23
< 6.30	OC1(C#Cc2cc3n(n2)CCCN3c2ccnc(Nc3ccc4c(c3)OCO4)n2)COC1	–
8.55	CC(O)(C#Cc1cc2n(n1)CCCN2c1ccnc(Nc2ccc3c(c2)OCO3)n1)c1nccs1 (stereo not given)	inhibition [4]: Active; inhibition [5]: Active; pIC50 [2]: 5.85; pIC50 [3]: 4.10
8.27	Cn1cc(Nc2nccc(N3CCCn4nc(C#CC(C)(O)c5nccs5)cc43)n2)cn1 (stereo not given)	–
8.29	COc1ccnc(Nc2nccc(N3CCCn4nc(C#CC(C)(O)c5nccs5)cc43)n2)c1 (stereo not given)	–
8.36	OC1(C#Cc2cc3n(n2)CCCN3c2ccnc(Nc3ccc4c(c3)OCO4)n2)CCn2ccnc21 (stereo not given)	–
7.85	OC1(C#Cc2cc3n(n2)CCCN3c2ccnc(Nc3ccc4c(c3)OCO4)n2)CCCC1	–
8.16	CC(O)(C#Cc1cc2n(n1)CCCN2c1ccnc(Nc2cc(C#N)ccn2)n1)c1nccs1 (stereo not given)	–
7.64	CC(C)(O)C#Cc1cc2n(n1)CCCN2c1ccnc(Nc2ccc3c(c2)OCO3)n1	–
< 6.30	C(#Cc1cc2n(n1)CCCN2c1ccnc(Nc2ccc3c(c2)OCO3)n1)c1ccccn1	–
8.27	CC(O)(C#Cc1cc2n(n1)CCCN2c1ccnc(NC23CC(C2)C3)n1)c1nccs1 (stereo not given)	inhibition [4]: Active; inhibition [5]: Active; pIC50 [2]: 5.82; pIC50 [3]: 4.78
7.54	CC(O)(C#Cc1cc2n(n1)CCCN2c1ccnc(Nc2ccc3c(c2)OCO3)n1)c1ccccc1 (stereo not given)	–
< 6.30	C(#CC1CC1)c1cc2n(n1)CCCN2c1ccnc(Nc2ccc3c(c2)OCO3)n1	–
8.19	CC(O)(C#Cc1cc2n(n1)CCCN2c1ccnc(Nc2ccc(Cl)cc2)n1)c1nccs1 (stereo not given)	–
7.81	CC(O)(C#Cc1cc2n(n1)CCCN2c1ccnc(Nc2ccc3c(c2)OC(F)(F)O3)n1)c1nccs1 (stereo not given)	–
8.24	COc1cccc(Nc2nccc(N3CCCn4nc(C#CC(C)(O)c5nccs5)cc43)n2)c1 (stereo not given)	inhibition [4]: Active; inhibition [5]: Active; pIC50 [2]: 5.88; pIC50 [3]: 4.34
6.88	CC(O)(C#Cc1cc2n(n1)CCCN2c1ccnc(NC2CCCCC2)n1)c1nccs1 (stereo not given)	–
7.94	CC(O)(C#Cc1cc2n(n1)CCCN2c1ccnc(Nc2cccc(N3CCOCC3)c2)n1)c1nccs1 (stereo not given)	–
8.03	Cn1ccc(Nc2nccc(N3CCCn4nc(C#CC(C)(O)c5nccs5)cc43)n2)n1 (stereo not given)	–
8.11	CN(C)c1cccc(Nc2nccc(N3CCCn4nc(C#CC(C)(O)c5nccs5)cc43)n2)c1 (stereo not given)	inhibition [4]: Active; inhibition [5]: Active; pIC50 [2]: 5.65; pIC50 [3]: 4.11
8.08	CC(O)(C#Cc1cc2n(n1)CCCN2c1ccnc(Nc2ccc(F)cn2)n1)c1nccs1 (stereo not given)	–
6.68	CN(C)c1ccnc(Nc2nccc(N3CCCn4nc(C#CC(C)(O)c5nccs5)cc43)n2)c1 (stereo not given)	–
